{
  "source": "patent US20260284071A1",
  "about": "“CONTROLLING HOMEOSTATIC REGULATORY CIRCUITRY IN HYPOTHALAMUS” (The Johns Hopkins University, priority 2021, published 2026)",
  "key": {"Shh signaling [1]": {"test_system": "Shh signaling", "test": "Activation of Shh signaling with SAG in juvenile control Rax-CreER;CAG-lsl-Sun1-GFP mice: tanycyte-derived neurogenesis", "conditions": "juvenile mice (P10-12), 10 mg/kg i.p.", "quoted_text": "Vehicle controls were performed in parallel. To quantify levels of tanycyte proliferation and neurogenesis, 50 mg/kg 5-Ethynyl-2′-deoxyuridine (EdU) was delivered via three once-daily i.p. injections beginning on the first day of treatment. Four days after the final treatment at P16, immunohistochemistry was performed on 25 μm hypothalamic brain sections to quantify the levels of tanycyte proliferation and tanycyte-derived neurogenesis. The number of Edu+/GFP+/HuC/D+ tanycyte-derived neurons in the DMN, VMN, ArcN, and ME of the hypothalamus were then quantified.\n• 1) Dissolved in 5 mg Sag with 1 ml of 1×PBS. • 2) Dilute stock to 1 ug/1 ul stock in 1×PBS that is 200 ul of 5 mg/ml stock into 800 ul of 1× PBS. • 3) if animal is 10 g then it will get 10 ug per gram so that is 100 ug/100 ul of 1 ug/1 ul stock."}, "[2]": {"conditions": "cited from earlier work"}, "Shh signaling [3]": {"test_system": "Shh signaling", "conditions": "Nfia/b/x-deficient mice", "quoted_text": "10 μg/g Cyclopamine was injected from P8 to P16 on alternative days. 100 μg/g body weight BrdU was injected together from the 3rd injection for 5 consecutive days. Control mice were treated with the corresponding vehicle solution.\nAll cell counts were performed blindly and manually by five independent observers using Fiji/ImageJ software. […] Initially, cell numbers were normalized by the size (mm) of hypothalamic nuclei measured. […] All values are expressed as mean±S.E.M. Comparisons were analyzed by two-tailed Student's t-test using Microsoft Excel unless stated otherwise. A p-value of <0.05 was considered statistically significant."}, "leptin receptor Lepr": {"test_system": "leptin receptor Lepr", "test": "Leptin injection: pStat3 induction in tanycyte-derived neurons of Nfia/b/x-deficient mice", "assay_type": "in vivo", "conditions": "P90 fasted mice, 3 mg/kg i.p., 45 minutes", "procedure": "At P45, 4.4% of tanycyte-derived neurons in the GABA_2 cluster expressed the leptin receptor Lepr (FIG. 5B), despite Lepr being essentially undetectable in tanycytes themselves, as previously reported (19). As a result, it was tested whether tanycyte-derived neurons were capable of responding to leptin signaling. P90 mice that had undergone an overnight fast were injected i.p. with 3 mg/kg leptin, and sacrificed after 45 minutes, providing sufficient time for leptin-responsive neurons throughout the hypothalamus to induce pStat3 immunoreactivity (35, 36). […] A total of 42.3 (2.5) % of parenchymal tanycyte-derived neurons in DMH and ArcN show pStat3 induction under these conditions, along with 22.3 (±3.9) % of tanycyte-derived neurons in the subventricular region (FIG. 5J), confirming that a subset of tanycyte-derived neurons are leptin-responsive.\nAfter brief washing with 1×PBS to remove the antifreeze solution, sections were mounted on Superfrost Plus slides (Fisher Scientific) before starting the immunohistochemistry and dried at room temperature for 30 min. To ensure adequate fixation for nuclear staining, sections were immersed into the fixative solution for 10 min at this point. Antigen retrieval was performed by incubating the slides with the prewarmed sodium citrate buffer (10 mM sodium citrate, pH 6.0) in an 80° C. water bath for 30 min. […] After finishing the first round of immunostaining, the fluorescence signal was crosslinked by incubation in 2% PFA for 10 min, followed by either EdU staining using the Click-iT EdU detection kit conjugated with Alexa Fluor 647 (ThermoFisher #C10340) or BrdU antibody staining. […]\nP45 male mice were exposed to ambient heat (38° C.) for 4 hours (67) by incubating in a prewarmed light-controlled cabinet in the rodent metabolism core facility at the Center for Metabolism and Obesity Research of the Johns Hopkins University School of Medicine. During the procedure, mice were provided ad libitum access to water and food and carefully monitored. […]"}, "[4]": {"conditions": "10 μg/g i.p. every 2 days P8-P16, compared to vehicle controls"}},
  "note": "Entries after “also recorded” stand apart in the source; their conditions may differ.",
  "data": [
    {"molecule": "CNC1CCC(N(Cc2cccc(-c3ccncc3)c2)C(=O)c2sc3ccccc3c2Cl)CC1", "note": "(stereo not drawn) [SAG]", "values": [
      {"measurement": "tanycyte proliferation as cause of the increase", "setting": "Shh signaling [1]", "value": "does not appear to be due to stimulating tanycyte proliferation"},
      {"measurement": "number of tanycyte-derived neurons", "setting": "Shh signaling [1]; 3 daily injections", "value": "increase, including significant increases"},
      {"measurement": "blood-brain barrier permeability", "setting": "[2]", "value": "efficiently cross the blood-brain barrier"}
    ]},
    {"molecule": "O=C1C2CN(Cc3ccc(Cl)cc3)CCN2C(=O)N1OC(=O)N1CCOc2ccccc21", "note": "(stereo not drawn) [ABC99, 7-(4-Chlorobenzyl)-1,3-dioxohexahydroimidazo[1,5-a]pyrazin-2(3H)-yl 2,3-dihydro-4Hbenzo[b][1,4]oxazine-4-carboxylate]", "values": [
      {"measurement": "blood-brain barrier permeability", "setting": "[2]", "value": "blood-brain barrier-permeable; also recorded: efficiently cross the blood-brain barrier"}
    ]},
    {"molecule": "CC1=C2C[C@H]3[C@@H](CC=C4C[C@@H](O)CC[C@@]43C)[C@@H]2CC[C@]12O[C@@H]1C[C@H](C)CN[C@H]1[C@H]2C", "note": "[Cyclopamine]", "values": [
      {"measurement": "blood-brain barrier permeability", "setting": "[2]", "value": "blood-brain barrier-permeable"},
      {"measurement": "numbers of GFP/NeuN double-positive neurons in VZ and HP", "setting": "Shh signaling [3]; [4]", "value": "significant reduction"},
      {"measurement": "numbers of total GFP-positive cells in ventricular zone (VZ) and hypothalamic parenchyma (HP)", "setting": "Shh signaling [3]; [4]", "value": "significant reduction"},
      {"measurement": "BrdU incorporation", "setting": "Shh signaling [3]; BrdU daily P12-P16, compared to vehicle controls", "value": "only significantly different in parenchymal neurons"},
      {"measurement": "neurogenesis (FIG. 4C)", "setting": "Shh signaling [3]; i.p.", "value": "inhibits neurogenesis"}
    ]},
    {"molecule": "leptin: Recombinant Murine Leptin (PeproTech #450-31) (protein, UniProt P41160 22-167, looked up) Leptin: VPIQKVQDDTKTLIKTIVTRINDISHTQSVSAKQRVTGLDFIPGLHPILSLSKMDQTLAVYQQVLTSLPSQNVLQIANDLENLRDLLHLLAFSKSCSLPQTSGLQKPESLDGVLEASLYSTEVVALSRLQGSLQDILQQLDVSPEC", "values": [
      {"measurement": "pStat3 immunoreactivity in GFP-positive tanycyte-derived neurons", "setting": "leptin receptor Lepr", "value": "Robust induction"},
      {"measurement": "parenchymal tanycyte-derived neurons in DMH and ArcN showing pStat3 induction", "setting": "leptin receptor Lepr", "value": "42.3 (2.5) %"},
      {"measurement": "tanycyte-derived neurons in the subventricular region showing pStat3 induction", "setting": "leptin receptor Lepr", "value": "22.3 (±3.9) %"}
    ]}
  ]
}
